What was measured:
[1] = Apparent permeability (Papp), bi-directional transport; type: in vitro ADME; details: pig, LLC-PK1, t=3 h, average of A to B and B to A, read-out: Papp LLC-PK1 cells
Description: Assay for Determination of Apparent Permeability (Papp)
Bi-directional transport is evaluated in LLC-PK1 cells in order to determine apparent permeability (Papp). LLC-PK1 cells can form a tight monolayer and therefore can be used to assess vectorial transport of compounds from basolateral to apical (B→A) and from apical to basolateral (A→B).
To determine Papp, LLC-PK1 cells are cultured in 96-well transwell culture plates (Millipore). Solutions containing the test compounds (1 μM) are prepared in Hank's Balanced Salt Solution with 10 mM HEPES. Substrate solution (150 μL) is added to either the apical (A) or the basolateral (B) compartment of the culture plate, and buffer (150 μL) is added to the compartment opposite to that containing the compound. At t=3 h, 50 μL samples are removed from both sides of monolayers dosed with test compound and placed in 96 well plates, scintillant (200 μL) or internal standard (100 μL labetolol 1 μM) is added to the samples and concentration is determined by liquid scintillation counting in a MicroBeta Wallac Trilux scintillation counter (Perkin Elmer Life Sciences, Boston, Mass.) or by LCMS/MS (Applied Biosystems SCIEX API 5000 triple quadruple mass spectrometer). [^3H]Verapamil (1 μM) is used as the positive control. The experiment is performed in triplicate.
The apparent permeability, Papp, is calculated by the following formula for samples taken at t=3 h:
[formula] Where: Volume of Receptor Chamber is 0.15 mL; Area of membrane is 0.11 cm^2; the Initial Concentration is the sum of the concentration measured in the donor plus concentration measured in receiver compartments at t=3 h; A in Concentration is concentration in the receiver compartment at 3 h; and A in Time is the incubation time (3×60×60=10800 s). Papp is expressed as 10^−6 cm/s. The Papp (LLC-PK1 cells) are the average of the Papp for transport from A to B and Papp for transport from B to A at t=3 h: […]

[2] = system: O-GlcNAcase in rat PC-12 cells; experiment: Cell-based ELISA of O-GlcNAcylated protein (RL-2 antibody); details: 24 h treatment, O-GlcNAcylated protein level
Excerpt: Assay for Determination of Cellular Activity for Compounds that Inhibit O-GlcNAcase Activity
Inhibition of O-GlcNAcase, which removes O-GlcNAc from cellular proteins, results in an increase in the level of O-GlcNAcylated protein in cells. An increase in O-GlcNAcylated protein can be measured by an antibody, such as RL-2, that binds to O-GlcNAcylated protein. The amount of O-GlcNAcylated protein:RL2 antibody interaction can be measured by enzyme linked immunosorbant assay (ELISA) procedures.
A variety of tissue culture cell lines, expressing endogenous levels of O-GlcNAcase, can be utilized; examples include rat PC-12, and human U-87, or SK—N—SH cells. […] If desired, the total protein concentration of samples is determined using 20 μL of the sample using the BCA method.
The ELISA portion of the assay is performed in a black Maxisorp 96-well plate that is coated overnight at 4° C. with 100 μL/well of the cell lysate (1:10 dilution of the lysate with PBS containing protease inhibitors, phosphatase inhibitors, and PMSF). […] The detection reaction is incubated for 15 minutes at room temperature and then read with excitation at 530 nm and emission at 590 nm.
The amount of O-GlcNAcylated protein, as detected by the ELISA assay, is plotted for each concentration of test compound using standard curve fitting algorithms for sigmoidal dose response curves. […]

Papp at 3 h, 1 μM [1]: 50 nm/s
EC50 [2]: 0.665 µM
Structure (SMILES): CC(=O)NC[C@@H]1[C@@H](O)[C@H](O)[C@@H](CO)N1CCCc1ccc(-c2ccccc2)cc1 [Example 3, N-(((2R,3R,4R,5R)-1-(3-([1,1′-biphenyl]-4-yl)propyl)-3,4-dihydroxy-5-(hydroxymethyl)pyrrolidin-2-yl)methyl)acetamide]

Reference: patent publication US9809537B2, “Glycosidase inhibitors and uses thereof” (Alectos Therapeutics Inc., priority 2012, dated 2017)
